# “And” between values parts separate entries of the source, which are not always exact repeats. Equal values may be shown once. “Also recorded” adds a separate entry of the source.
# Assays:
# [1] = tested on: methionine-enkephalin-induced analgesia; assay: Potentiation of methionine-enkephalin-induced analgesia (hot plate test), product given i.c.v.; format: in vivo, Male Swiss mice; conditions: for Reaction time areas, Product Met-enk: product 0.16 μmoles i.c.v. together with Met-enk i.c.v., hot plate; for Reaction time areas, Product: product alone, 0.16 μmoles i.c.v., hot plate 51.5° C., 3-15 min
# Method: (§1) Male Swiss mice (CD Charles River) weighing 22-24 g received intracerebroventricular (i.c.v.) injection of methionineenkephalin as described by Haley and Mc Cormick [Br. J. Pharmacol., 12, 12-15, (1957)].
# (§2) Methionine-enkephalin was dissolved in distilled water and microinjected in a volume of 10 μl/mouse and in a dose analgesic in less than 30% of animals. The dose (10.25 or 50 μg/mouse) was chosen at the beginning of each experience depending on each batch's analgesic activity.
# (§3) The antinociceptive effect was tested by the hot plate test as described by Eddy and Leimbach [(J. Pharmacol. Exptl. Therap., 107, 385-393, (1953)]. The time in seconds from contact with the plate (51.5° C.) to paw licking or Jumping accurrence was recorded as the response latency.
# (§4) Animals were removed as soon as they reacted or after 30 seconds if they at 3, 6, 9, 12 and 15 minutes after the i.c.v. treatment and the latency times measured were used to calculate the reaction time areas. At first the compounds of formula I and Bestatin were administered simultaneously to methionine-enkephalin (dissolved in the same solution) by intracerebroventricular treatment to evaluate their activity without any interference due to absorbtion or diffusion through the blood-brain barrier.
# [2] = tested on: methionine-enkephalin-induced analgesia; assay: Potentiation of methionine-enkephalin-induced analgesia (hot plate test), product given i.v.; format: in vivo, Male Swiss mice; conditions: for Reaction time areas, Product: product alone
# Method: as §1, §2, §3, §4
# Then the compounds of formula I and Bestatin were tested after intravenous (i.v.) administration to study their diffusion across blood-brain barrier.
# The administration i.v. of the compounds of formula I and of Bestatin was simultaneous to methionine-enkephalin administration i.c.v.
# [3] = product 0.05 mmoles/kg i.v. simultaneous to Met-enk i.c.v.
# [4] = product 0.08 mmoles/kg i.v. simultaneous to Met-enk i.c.v.
Molecule,"Reaction time areas, Met-enk ([1]; Met-enk alone i.c.v., control group of each Table 1 experiment)","Reaction time areas, Met-enk ([2]; Met-enk alone i.c.v., control group of each Table 2 experiment)","Reaction time areas, Product Met-enk [2, 3]","Reaction time areas, Product Met-enk [2, 4]","Reaction time areas, Product ([2]; 0.05 mmoles/kg i.v.)","Reaction time areas, Product ([2]; 0.08 mmoles/kg i.v.)","Reaction time areas, Product Met-enk [1]","Reaction time areas, Product [1]","Activity of enhancing analgesia induced by opioids when administered by intravenous route ([2]; intravenous route, in words)"
Methionine-enkephalin [Met-enk],207 ± 15.6 and 173 ± 11.2 and 188 ± 4.7,199 ± 14.0 and 197 ± 16.7 and 208 ± 8.3 and 200 ± 6.1 and 197 ± 9.7,,,,,,,
"CS(=O)(=O)c1ccc(C[C@@H](N)[C@H](O)C(=O)NC2(C(=O)O)CCCC2)cc1 [Compound 2, 1-[(2S,3R)-3-amino-2-hydroxy-4-(4-methylsulfonyl-phenyl)-butanoyl]-amino-1-cyclopentanecarboxylic acid]",,,243 ± 15.9,233 ± 10.1,190 ± 7.8,191 ± 8.5,,,
"CS(=O)(=O)c1ccc(C[C@@H](N)[C@H](O)C(=O)NC2(C(=O)O)CCC2)cc1 [Compound 4, 1-[(2S,3R)-3-amino-2-hydroxy-4-(4-methylsulfonyl-phenyl)-butanoyl]-amino-1-cyclobutanecarboxylic acid]",,,,,,,290 ± 17.1,179 ± 9.9,
"CC(C)C[C@H](NC(=O)[C@@H](O)[C@H](N)Cc1ccccc1)C(=O)O [Bestatin, [(2S,3R)-3-amino-2-hydroxy-4-phenyl-butanoyl]-L-leucine]",,,202 ± 6.9,212 ± 10.0,173 ± 3.7,182 ± 8.3,268 ± 11.3,222 ± 13.3,practically inactive; also recorded: not active

# — patent US5145872A, “Peptides with pharmaceutical activity” (Zambon Group, S.p.A., priority 1988, dated 1992)
